The test system of series [1] is carrageenan induced edema. The series can be described thus: Anti-inflammatory activity, carrageenan induced edema (paw volume, plethysmometer). Particulars: for inhibition in vivo at 5 mg/kg: Mus musculus, po, dose 5 mg/kg b.m (p.o.), n = 6, read-out: Edema inhibition (Means ± E.M); for anti-inflammatory activity (in words): grading in the structure activity discussion. Format: in vivo, mice. The method, then: (§1) Female albino mice (16–18 g) and Sprague Dawley […] (100 g) obtained from the Theodor Bilharz Research Institute (TBRI, Giza city, Egypt) were used. Approval of the institutional animal ethical committee for the animal studies was obtained from the Office of Environmental Health and Radiation Safety, ACUC Protocol 1096-5. The animals were maintained according to accepted standards of animal care.
Newly synthesized thienopyrimidine derivatives were dissolved in 0.5% carboxymethyl cellulose (CMC) as a homogeneous solution and administered […]. One hundred and eight […] were divided into eighteen groups, each group consisting of six animals. Anti-inflammatory activity of the compounds was studied in mice using carrageenan induced edema. A suspension of the tested compound and the reference drug, indomethacin in aqueous solution was administered orally at a dose 5 mg/kg. Control animals were treated with 0.5% CMC only. After 30 min, 0.1 mL of freshly prepared 1.0% carrageenan solution (in formol saline) was injected into the sub-plantar region of the right hind paw according to Hernandez-Perez. The right paw volume was measured using a digital plethysmometer (Model 7150, Ugo Basile, Varese, Italy), directly before and after 1, 2, 3 h, intervals after administration of the tested compounds.

In series [2] the test system is Gastric Ulceration in mice. The series can be described thus: Ulcerogenic activity (gastric ulceration in mice). Particulars: oral, 6 h; for mean ulcer lesions ± SEM: n = 6. In kind it is in vivo. The method, then: as §1
Seventy-two mice were divided into twelve groups. Ulcerogenic activity was evaluated after oral administration of the tested compounds or indomethacin at doses of 10, 50, and 100 mg/kg. Control mice received 0.5% CMC. Food but not water was removed 24 h before administration of the tested compounds. After 6 h, the mice were sacrificed; the stomach was removed and opened along the greater curvature, washed with distilled water and cleaned gently by dipping in saline. The mucosa damage for each stomach was examined using a stereoscopic microscope and compared with the reference drug indomethacin according to the reported procedure.

The next series is described as follows: Acute toxicity (LD50). Particulars: mouse, in vivo, ip; male adult mice, i.p., mortality after 24 h, graphical method. The method, then:
To determine the acute toxicity of the compounds, the LD50 values for compounds 2, 3, 6, 9 and 10 were determined by injecting different gradual increased doses of the tested compounds into male adult mice, then calculating the dose corresponding to 50% animal death (Table 3).
Groups of male adult mice, each of six animals, were injected i.p. with graded doses of each of the test compounds. The percentage of mortality in each group of animals was determined 24 h, after injection. Computation of LD50 was processed by a graphical method.

SMILES strings stand for the structures. Read-outs that look alike come from different tables or passages of the source.

Regarding `COc1ccc(-c2nc3sc4c(c3c3nnc(Nc5ccccc5)n23)CCCCCC4)cc1` [Compound 12], the inhibition in vivo at 5 mg/kg in series [1] (1 h) came to 19.4 ± 1.6%; in series [1] (2 h), 21.3 ± 1.3%; in series [1] (3 h), 23.3 ± 1.2%. Further, the “anti-inflammatory activity (in words)” value in series [1] is “moderate”.
As for `COc1ccc(-c2nc3sc4c(c3c3nc5ccccc5c(=O)n23)CCCCCC4)cc1` [Compound 5, 8-(4-Methoxyphenyl)-6-oxo-cycloocteno[4.5]thino[2,3-d]pyrimidino[4.3-b]quinazoline], the inhibition in vivo at 5 mg/kg in series [1] (1 h) came to 11.7 ± 1.1%; in series [1] (2 h), 13.2 ± 1.2%; in series [1] (3 h), 15.2 ± 1.5%. Further, the “anti-inflammatory activity (in words)” value in series [1] is on record as “weak”.
Turning to `COc1ccc(-c2nc3sc4c(c3c3n[nH]c(=O)c(=O)n23)CCCCCC4)cc1` [Compound 7, 6-(4-Methoxyphenyl)-3,4-dioxo-2H-cycloocteno[4.5]thieno[2,3-d]triazino[1,2.4]-[3,4-a]pyrimidine], the results for the inhibition in vivo at 5 mg/kg in series [1] (1 h), in series [1] (2 h) and in series [1] (3 h) were 20.8 ± 1.4%, 22.3 ± 1.3% and 25.1 ± 1.4%, respectively. The “anti-inflammatory activity (in words)” value in series [1] is “moderate”.
Take `COc1ccc(-c2nc(NN)c3c4c(sc3n2)CCCCCC4)cc1` [Compound 2, 2-(4-Methoxyphenyl)-4-hydrazinocycloocteno[4.5]thieno[2.3-d]pyrimidine]: the figures for the inhibition in vivo at 5 mg/kg in series [1] (1 h), in series [1] (2 h) and in series [1] (3 h) were 42.3 ± 1.1%, 49.3 ± 1.1% and 57.1 ± 1.4%, respectively. For the same compound, in series [1], the “anti-inflammatory activity (in words)” value is “high”. Further, the “number of mice lesions bigger than 0.5 mm in length per total no. of mice” value (“number … per total no. of mice” below) in series [2] (dose 10 mg/kg), in series [2] (dose 50 mg/kg) and in series [2] (dose 100 mg/kg) was 0/6 in each case. Further, the “mean ulcer lesions ± SEM” value in series [2] (dose 10 mg/kg), in series [2] (dose 50 mg/kg) and in series [2] (dose 100 mg/kg) was 0 mm in each case. This compound also gave an LD50 at 24 h in “Acute toxicity (LD50)” of 2514 ± 12 mg/kg.
Regarding `COc1ccc(-c2nc3sc4c(c3c3nnnn23)CCCCCC4)cc1` [Compound 6, 5-(4-Methoxyphenyl)-cycloocteno[4.5]thieno[2.3-d]tetrazolo[4.5-e]pyrimidine], the inhibition in vivo at 5 mg/kg in series [1] (1 h) was determined as 34.5 ± 1.2%; in series [1] (2 h), 42.1 ± 1.3%; in series [1] (3 h), 48.2 ± 1.2%. Further, the “anti-inflammatory activity (in words)” value in series [1] is reported as “high”. In the series “Acute toxicity (LD50)”, this compound came in with an LD50 at 24 h of 2047 ± 12 mg/kg.
As for `COc1ccc(-c2nc3sc4c(c3c3n[nH]c(=O)n23)CCCCCC4)cc1` [Compound 9, 5-(4-Methoxy)phenyl-3-oxo-2H-cycloocteno[4,5]thieno[2,3-d][1,2,4]triazolo[4,5-a]pyrimidine], the inhibition in vivo at 5 mg/kg was determined as 31.2 ± 1.2% in series [1] (1 h), 35.1 ± 1.5% in series [1] (2 h) and 40.2 ± 1.6% in series [1] (3 h). In addition, the “anti-inflammatory activity (in words)” value in series [1] is “high”. Moreover, the LD50 at 24 h in the series “Acute toxicity (LD50)” worked out at 1832 ± 12 mg/kg.
In the case of `COc1ccc2c(c1)c(CC(=O)O)c(C)n2C(=O)c1ccc(Cl)cc1` [Indomethacin, reference compound], the inhibition in vivo at 5 mg/kg in series [1] (1 h) was 44.7 ± 1.2%; in series [1] (2 h) it was 52.4 ± 1.2%; in series [1] (3 h), 61.2 ± 1.3%. For the same compound, the results for the “number … per total no. of mice” value in series [2] (dose 10 mg/kg), in series [2] (dose 50 mg/kg) and in series [2] (dose 100 mg/kg) were 3/6, 5/6 and 6/6, respectively. The “mean ulcer lesions ± SEM” value in series [2] (dose 10 mg/kg) was 1.4 ± 0.2 mm; in series [2] (dose 50 mg/kg), 1.9 ± 0.2 mm; in series [2] (dose 100 mg/kg) it was 2.1 ± 0.2 mm. Moreover, in “Acute toxicity (LD50)”, the LD50 at 24 h was 1817 ± 15 mg/kg.
In the case of `COc1ccc(-c2nc3sc4c(c3c3nnc(-c5ccccc5)n23)CCCCCC4)cc1` [Compound 14, 5-(4-Methoxyphenyl)-4-phenylcycloocteno[4,5]thieno[2,3-d][1,2,4]triazolo[4,5-c]pyrimidine], the results for the inhibition in vivo at 5 mg/kg in series [1] (1 h) and in series [1] (3 h) were 7.3 ± 1.1% and 11.2 ± 1.5%, respectively. Moreover, the “anti-inflammatory activity (in words)” value in series [1] is on record as “weak”.
On to `COc1ccc(-c2nc3sc4c(c3c3nnc(CC#N)n23)CCCCCC4)cc1` [Compound 3, 5-(4-Methoxyphenyl)-3-cyanomethylcycloocteno[4.5]thieno[2.3-d]triazolo[1,2,4]-[4,5-a]pyrimidine], for which the inhibition in vivo at 5 mg/kg came to 37.2 ± 1.3% in series [1] (1 h), 46.3 ± 1.5% in series [1] (2 h) and 54.4 ± 1.1% in series [1] (3 h). Moreover, the “anti-inflammatory activity (in words)” value in series [1] is listed as “high”. Moreover, the LD50 at 24 h in “Acute toxicity (LD50)” is 2131 ± 13 mg/kg.
`COc1ccc(-c2nc3sc4c(c3c3nnc(C)n23)CCCCCC4)cc1` [Compound 10, 5-(4-Methoxyphenyl)-3-methyl-2H-cycloocteno[4,5]thieno[2,3-d][1,2,4]triazolo-[4,5-a] pyrimidine]: the figures for the inhibition in vivo at 5 mg/kg in series [1] (1 h), in series [1] (2 h) and in series [1] (3 h) were 39.1 ± 1.5%, 48.4 ± 1.2% and 55.6 ± 1.1%, respectively. In addition, the “anti-inflammatory activity (in words)” value in series [1] was “high”. The “number … per total no. of mice” value in series [2] (dose 10 mg/kg), in series [2] (dose 50 mg/kg) and in series [2] (dose 100 mg/kg) was 0/6 throughout. Moreover, the “mean ulcer lesions ± SEM” value in series [2] (dose 10 mg/kg), in series [2] (dose 50 mg/kg) and in series [2] (dose 100 mg/kg) was 0 mm each time. The compound also returned an LD50 at 24 h in the series “Acute toxicity (LD50)” of 2341 ± 11 mg/kg.
`COc1ccc(C2=Nc3sc4c(c3C3=NNC(=O)CN23)CCCCCC4)cc1` [Compound 8, 6-(4-Methoxyphenyl)-3-oxo-2,4-dihydrocycloocteno[4,5]thieno[2,3-d]triazino-[1,2,4][3,4-a]pyrimidine]: the figures for the inhibition in vivo at 5 mg/kg in series [1] (1 h), in series [1] (2 h) and in series [1] (3 h) were 21.3 ± 1.2%, 24.6 ± 1.1% and 26.5 ± 1.2%, respectively. Further, in series [1], the “anti-inflammatory activity (in words)” value is given as “moderate”.
Consider `COc1ccc(C2=Nc3sc4c(c3C3=NCC(=O)N23)CCCCCC4)cc1` [Compound 4], for which the results for the inhibition in vivo at 5 mg/kg in series [1] (1 h), in series [1] (2 h) and in series [1] (3 h) were 16.5 ± 1.3%, 17.2 ± 1.1% and 19.3 ± 1.2%, respectively. Moreover, the “anti-inflammatory activity (in words)” value in series [1] is given as “weak”.
